Test results as given in patent US3937838A, “Orally active bronchospasmolytic compounds and their preparation” (priority 1966, dated 1976).
“Also recorded” adds a separate entry of the source. Read-outs that look alike come from different tables or passages of the source.

Key:
adrenergic receptors = settings: cited from earlier work
[1] = tested on: bronchoconstriction by histamine aerosol; assay: Protecting effect against histamine aerosol in guinea pigs (Example 15); format: in vivo, guinea pig; settings: Cavia porcellus, read-out: ED50 (protecting 50 percent of the animals for more than 4 minutes)
Excerpt: Male guinea pigs (200--300 g) were used. Bronchoconstriction was produced by letting the animals inhale a histamine aerosol.

[2] = Toxicity study in mice (Example 18); format: in vivo; settings: mouse, in vivo, read-out: LD 50 + Standard error
Protocol: (§1) The toxicity was studied in mice (NMRI, male, 18-28 g) 24 hours after i.v. and oral administration. The animals were observed during five days. No further deaths occurred.

mice = assay: Toxicity study in mice (Example 18); format: in vivo; settings: mouse, in vivo, po
Protocol: as §1

guinea pig trachea = assay: Bronchospasmolytic effect in vitro (Example 13); settings: per se
Protocol: The trachea from a guinea pig was dissected out and spirally cut. It was mounted in a water-jacketed bath (37°C.) in Krebs solution and aerated with oxygen (95%) and carbon dioxide (5%). Pilocarpine (2 μg/ml) was added. The load was adjusted to about 2 g and relaxations in the trachea were recorded by means of a Grass force displacement transducer and a Grass polygraph model 5 (see Example 5 above). The cumulative method was used (-)-Epinephrine was used as reference. The comparisons presented in Table 7 are based on ED50 -values.

[3] = tested on: isolated guinea pig heart; assay: Effect on isolated heart from guinea pig, Langendorff (Example 16); settings: per se
Protocol: The isolated guinea pig heart was perfused according to Langendorff. The method used is described by Anden et al. [Acta Pharmacol. et Toxicol. 21, 247, (1964)]. Contractions in the heart were recorded by a force displacement transducer and a Grass polygraph model 5. The recovery of the heart was tested with (-) epinephrine between every dose of the substance tested. Terbutaline was used as reference.

isolated rabbit heart = assay: Effect on isolated heart, Langendorff preparation (Example 5d); settings: injection; FIG. 5
Protocol: The effect of the compound of the present invention was also studied on isolated rabbit heart (Langendorff preparation) the method used as described by Anden et al. (Acta Pharmacol. et Toxicol., 21 (1964) page 247). In this procedure, the isolated heart is mounted in a Krebs solution and the test compound is injected into it. Measurements are continuously recorded of the rate and force of contraction.
The tests using epinephrine establish a standard of comparison to evaluate subsequent test compounds in the same preparation.

[4] = tested on: right auricle from the guinea pig; assay: Dual preparation test in vitro, effect on auricle (Example 5c); settings: slow infusion, FIGS. 2-4; for cardiac stimulation in relation to bronchodilator effect: both preparations in same bath
Excerpt: [This procedure is more fully described below in Example 5 (b)].
FIG. 2 illustrates the effect of epinephrine (EPE) and terbutaline on spirally cut trachea and right auricle from the guinea pig. Both preparations are dissected out from the same animal and run under identical experimental conditions;
Both preparations are dissected out from the same animal, and run under identical experimental conditions;
Both preparations are dissected out from the same animal and run under identical experimental conditions;
The relation between the heart stimulatory effect and bronchodilator effect was studied in vitro on auricle-trachea-preparation from the guinea pig in order to compare the effect on the heart and the effect on the bronchial muscle under identical experimental conditions. Both spontaneously bearing auricle and spirally-cut trachea were placed in the same bath in Krebs solution. Both preparations were taken from the same animal.
The compound to be tested was slowly infused into the bathing solution and the tension was measured for each of the auricle and trachael preparations.
In carrying out this dual preparation test, epinephrine was used as a reference. […] Infusion of epinephrine was made over a period of ten minutes. After washing and recovery, the test solution was infused in the same manner and the effect of the test compound was compared with the effect of epinephrine.
Referring more specifically to FIG. 2, the upper portion of each chart thereof represents the tension continuously recorded of the auricle preparation (shaded area 1 for the effect of epinephrine on the auricle, ref. no. 2 for the effect of terbutaline infused at a rate of 0.2 μg/min on the auricle, and ref. no. 3 for the effect of terbutaline infused at a rate of 0.375μg/min on the auricle).

[5] = tested on: sphincter of Oddi (choledochoduodenal sphincter); assay: Effect on sphincter of Oddi (Example 5e); format: in vivo, cat; settings: anesthetized cats; for duodenal pressure / motility / heart rate: concurrent with sphincter effect; for common bile duct pressure / sphincter relaxation: i.v., 1 μg/kg terbutaline in FIG. 7, FIG. 8
Protocol: The effect of terbutaline on the choledochoduodenal sphincter of young, healthy cats was studied. Young animals weighing at least 2.0 kg were used. After being deprived of food but not water for 24 hours, they were anesthetized with pentobarbitol (40 mg/kg i.p.). The terminal portion of a common bile duct was isolated and cannulated toward the duodenum. The hepatic part of the bile duct was drained to prevent distention. The pressure was continuously recorded by the open tip technique. Details of the experimental set up have been published by Liedberg and Halabi [Acta. Chir. Scand. 136 (1970) page 208.] Heart rate was recorded on all experiments and blood pressure by arterial cannulation in some.
Referring to the upper curve of FIGS. 7 and 8, the heart rate is continuously recorded. Concurrent records are made in the middle curve and lower curve of the pressures measured respectively in the common bile duct and in the lower duodenum.
As a control in this test, the animal was also treated with 0.5 international units per kg of cholecystokinin (CCK).
In a second test of the effect of terbutaline and isoprenaline on the sphincter (see FIG. 8), the duodenal motility was measured without being affected by CCK.

bronchial asthma = assay: Clinical study in asthmatic patients (Example 6); format: in vivo, human
Protocol: All the patients were hospitalized for severe bronchial asthma. Before the patients were selected for the trial, spirometry was performed before and after isoprenaline inhalations to make sure that their obstruction was at least partly reversible by bronchodilating drugs. The tests were performed when the patients were in a relatively steady state of moderate asthmatic discomfort. Every morning during the trial control measurements of forced expiratory volume in one second (FEV1.0) were made. These values had to be less than 70% of the predicted normal value taking in consideration sex, age and heights. All the patients were under treatment of different drugs for their asthma. Other bronchodilating drugs were withdrawn at least 6 hours before the start of the measurements. Most of the patients were treated with steroids, antibiotics and expectorants before the start of the trial. This regimen was continued unchanged during the trial period.
Twenty-four took part in the study, 10 male and 14 female. Average age was 51 years (range 15-71 years), mean body weight 64 kg (range 44-88 kg.) and height 166 cm (range 150-187 cm).
The trial was performed as a double blind study during three consecutive days with the patients serving as their own control. […] The order of treatment was randomized according to the principle of Latin squares.
Lung function tests were made immediately before the administration of the tablets and after 1, 2, 3, 5 and 7 hours. FEV1.0 was measured using a Vitalograph spirometer. The highest value of three measurements on each occasion was used in the calculations. All the patients had been trained to perform the tests the day before the start of the trial. After 3 and 7 hours, the patients were questioned for side effects. The same, specially trained, nurse assisted throughout the whole investigation.
The "Student's" t-test was used for statistical evaluation of the results. The degree of significance for the differences is given as almost significant (p<0.05^x) significant (p<0.01^xx) and highly significant (p<0.001^xxx).

CNC(C)C(O)c1ccccc1 (stereo not shown) [Ephedrine, 1-phenyl-2-(methylamino)propanol]
cardiovascular side effects (adrenergic receptors; background): palpitations and tachycardia | CNS side effects (adrenergic receptors; background, oral): anxiety and sleeping disturbances

CC(C)(C)NCC(O)c1cc(OC(=O)C(C)(C)C)cc(OC(=O)C(C)(C)C)c1 (stereo not shown) [KWD2085]
ED50 ([1]; 0.5 h, oral, 30 minutes before histamine): 0.24 mg/kg | ED50 ([1]; ip, 0.25 h, i.p., 15 minutes before histamine): 0.13 mg/kg | LD50 at 24 h ([2]; iv): 23 ± 2 mg/kg | LD50 at 24 h ([2]; po): 2200 mg/kg | oral absorption in comparison with terbutaline (mice): improved oral absorption in comparison with terbutaline | bronchospasmolytic effect in vitro relative to terbutaline (guinea pig trachea): weaker bronchospasmolytic effect in vitro than terbutaline | direct heart effect relative to terbutaline [3]: much less direct heart effect

CNCC(O)c1ccc(O)c(O)c1 (stereo not shown) [epinephrine, 1-(3',4'-dihydroxyphenyl)-2-(methylamino)-ethanol]
effect on rate and force of isolated heart (isolated rabbit heart): increase in the heart rate; also recorded: increase in the force of contraction; also recorded: readily observable | adrenergic receptors stimulated (adrenergic receptors; background): stimulates α- and β1 - as well as β2 -receptors | cardiovascular side effects (adrenergic receptors; background): tachycardia, increased cardiac output and sometimes an increase in blood pressure | duration of bronchodilator activity (adrenergic receptors; background): relatively short-lived | cardiac stimulation in relation to bronchodilator effect [4]: affecting both the auricle and tracheal preparations over the concentration range tested | cardiac stimulation in relation to bronchodilator effect ([4]; listed as Epinephrine): bronchodilation and heart muscle stimulation in the same concentration range | effect on auricle (tension) ([4]; 0.375 μg/min where stated): nearly doubled the maximum tension of the auricle

CC(C)NCC(O)c1ccc(O)c(O)c1 (stereo not shown) [isoprenaline, 1-(3',4'-dihydroxyphenyl)-2-(isopropylamino)-ethanol, reference compound]
adrenergic receptors stimulated (adrenergic receptors; background): stimulates β1 and β2 -receptors equally | duration of bronchodilator activity (adrenergic receptors; background): relatively short-lived | cardiovascular side effects (adrenergic receptors): cardiovascular stimulation, especially tachycardia | cardiac stimulation in relation to bronchodilator effect [4]: strong cardiac stimulants in relation to their bronchodilator effect | duodenal pressure / motility [5]: inhibited duodenal motility | heart rate [5]: marked tachycardia | duodenal pressure / motility ([5]; listed as Isoprenaline): differed markedly from terbutaline in its effect on heart rate and intestinal activity | heart rate ([5]; listed as Isoprenaline): differed markedly from terbutaline in its effect on heart rate and intestinal activity | common bile duct pressure / sphincter relaxation [5]: reduces common bile duct pressure

CC(C)NCC(O)c1cc(O)cc(O)c1 (stereo not shown) [orciprenaline, 1-(3',5'-dihydroxyphenyl)-2-(isopropylamino)-ethanol, reference compound]
time of maximal response (FEV1.0) (bronchial asthma; oral single dose): 2 h | increase of FEV1.0 (bronchial asthma; oral, terbutaline 5.0 mg, orciprenaline 20 mg, FIG. 9): clearcut increase of the spirometric values | bronchodilator potency (adrenergic receptors; background, versus previously used bronchodilators): less potency than previously used bronchodilators | cardiac stimulation in relation to bronchodilator effect [4]: strong cardiac stimulants in relation to their bronchodilator effect

cholecystokinin [reference compound]
duodenal pressure / motility [5]: markedly stimulated the duodenum | common bile duct pressure / sphincter relaxation [5]: relaxed the sphincter
